Reference: patent US7015236B2, “N-heteroarylnicotinamide derivatives” (Sankyo Agro Company, Limited, priority 2001, dated 2006)

System: green peach aphid (Myzus persicae)
Test: Insecticidal test for green peach aphid (100 ppm), Test Example 1
Type: in vivo
Conditions: 120 h, 100 ppm spray on Komatsuna leaf, larvae, counted 5 days after spraying, 25° C., read-out: mortality (%)
Procedure: Insecticidal test for green peach aphid (Myzus persicae) (100 ppm)
Water (30 ml) was put into a beaker, and a leaf of Komatsuna (Brassica var. rapa) was placed within the beaker such that the stem was immersed in water. On the leaf of Komatsuna, five green peach aphids were released and allowed to fertilize. Two days after the releasing, imagoes were removed and the number of larvae was counted.
A surfactant Newcol NE-710F (trademark, produced by Nippon Nyukazai Co., Ltd., 2%) was dissolved in aqueous acetone (95% aqueous solution, 98%) to prepare solution 1. Next, a dispersant Gousenol GLO5-S (trademark, produced by Nippon Nyukazai Co., Ltd., 0.2% aqueous solution, 0.2%) was dissolved in water (99.8%) to prepare solution 2.
To each of the compounds (8 mg) of the present invention, the above solution 1 (0.4 ml), the above solution 2 (0.4 ml) and water (8 ml) were added. Further, the compounds of the present invention were each diluted with water so that the concentration of each compound was 100 ppm {as a spreading agent, Gramin S (trademark, produced by Sankyo Co., Ltd.) was added so as to have a concentration of 0.01%}.
The above chemical liquid (8 ml) was sprayed on the leaf of Komatsuna by use of a rotary spraying tower. The leaf of Komatsuna was put back in the beaker. Then, the beaker was placed in a thermostatic chamber of 25° C. for 16 hours in the light and for 8 hours in the dark. 5 Days after the spraying, the number of dead insects was counted to calculate the mortality (%).

O=C(c1cnccc1C(F)(F)F)N(C(=O)c1cnccc1C(F)(F)F)c1oncc1Oc1ccccc1 [Example 52, 5-[N,N-Bis(4-trifluoromethylnicotinoyl)]amino-4-phenoxyisoxazole]
mortality at 100 ppm: ≥ 95%

O=C(Nc1oncc1C1CCCCC1)c1cnccc1C(F)(F)F [Example 65, N-(4-Cyclohexyl-5-isoxazolyl)-4-(trifluoromethyl)nicotinamide]
mortality at 100 ppm: ≥ 95%

C=CCc1cnoc1NC(=O)c1cnccc1C(F)(F)F [Example 38, N-(4-Allyl-5-isoxazolyl)-4-(trifluoromethyl)nicotinamide]
mortality at 100 ppm: ≥ 95%

CCc1cnoc1NC(=O)c1cnccc1C(F)(F)F [Example 34, N-(4-Ethyl-5-isoxazolyl)-4-(trifluoromethyl)nicotinamide]
mortality at 100 ppm: ≥ 95%

Cc1noc(NC(=O)c2cnccc2C(F)(F)F)c1-c1ccccc1 [Example 61, N-(3-Methyl-4-phenyl-5-isoxazolyl)-4-(trifluoromethyl)nicotinamide]
mortality at 100 ppm: ≥ 95%

Cc1noc(NC(=O)c2cnccc2C(F)(F)F)c1C [Example 33, N-(3,4-Dimethyl-5-isoxazolyl)-4-(trifluoromethyl)nicotinamide]
mortality at 100 ppm: ≥ 95%

CCCCCCc1cnoc1NC(=O)c1cnccc1C(F)(F)F [Example 43, N-(4-Hexyl-5-isoxazolyl)-4-(trifluoromethyl)nicotinamide]
mortality at 100 ppm: ≥ 95%

O=C(Nc1oncc1CCc1ccccc1)c1cnccc1C(F)(F)F [Example 46, N-(4-Phenylethyl-5-isoxazolyl)-4-(trifluoromethyl)nicotinamide]
mortality at 100 ppm: ≥ 95%

CSCN(C(=O)c1cnccc1C(F)(F)F)c1cc(C)no1 [Example 20, N-(3-Methyl-5-isoxazolyl)-N-methylthiomethyl-4-(trifluoromethyl)nicotinamide]
mortality at 100 ppm: ≥ 95%

CCOC(=O)c1cc(NC(=O)c2cnccc2C(F)(F)F)on1 [Example 29, N-(3-Ethoxycarbonyl-5-isoxazolyl)-4-(trifluoromethyl)nicotinamide]
mortality at 100 ppm: ≥ 95%

O=C(Nc1oncc1C1CCC1)c1cnccc1C(F)(F)F [Example 41, N-(4-Cyclobutyl-5-isoxazolyl)-4-(trifluoromethyl)nicotinamide]
mortality at 100 ppm: ≥ 95%

Cc1noc(NC(=O)c2cnccc2C(F)(F)F)n1 [Example 21, N-(3-Methyl-[1,2,4]oxadiazol-5-yl)-4-(trifluoromethyl)nicotinamide]
mortality at 100 ppm: ≥ 95%

N#Cc1cc(NC(=O)c2cnccc2C(F)(F)F)on1 [Example 9, N-(3-Cyano-5-isoxazolyl)-4-(trifluoromethyl)nicotinamide]
mortality at 100 ppm: ≥ 95%

COCc1cc(NC(=O)c2cnccc2C(F)(F)F)on1 [Example 10, N-(3-Methoxymethyl-5-isoxazolyl)-4-(trifluoromethyl)nicotinamide]
mortality at 100 ppm: ≥ 95%

COCc1noc(NC(=O)c2cnccc2C(F)(F)F)c1Cl [Example 13, N-(4-Chloro-3-methoxymethyl-5-isoxazolyl)-4-(trifluoromethyl)nicotinamide]
mortality at 100 ppm: ≥ 95%

CCOC(OCC)c1cc(NC(=O)c2cnccc2C(F)(F)F)on1 [Example 26, N-(3-Diethoxymethyl-5-isoxazolyl)-4-(trifluoromethyl)nicotinamide]
mortality at 100 ppm: ≥ 95%

COCc1cnoc1NC(=O)c1cnccc1C(F)(F)F [Example 63, N-(4-Methoxymethyl-5-isoxazolyl)-4-(trifluoromethyl)nicotinamide]
mortality at 100 ppm: ≥ 95%

CC(C)Cc1cnoc1NC(=O)c1cnccc1C(F)(F)F [Example 40, N-(4-Isobutyl-5-isoxazolyl)-4-(trifluoromethyl)nicotinamide]
mortality at 100 ppm: ≥ 95%

CC(C)c1cnoc1NC(=O)c1cnccc1C(F)(F)F [Example 36, N-(4-Isopropyl-5-isoxazolyl)-4-(trifluoromethyl)nicotinamide]
mortality at 100 ppm: ≥ 95%

Cc1noc(NC(=O)c2cnccc2C(F)(F)F)c1Br [Example 14, N-(4-Bromo-3-methyl-5-isoxazolyl)-4-(trifluoromethyl)nicotinamide]
mortality at 100 ppm: ≥ 95%
